Results reported in patent publication US20250130239A1, “PROTEIN DEGRADER” (University of Dundee, priority 2021, published 2025).
Where two headings read alike, the source gives them in different places.

What was measured:
wild-type Brd4^BD2 = wild-type Brd4^BD2 (Homo sapiens, UniProt O60885); conditions: cited from earlier work
[1] = system: BRD2 in Bromotag-BRD2 CRISPR knock-in HEK293 cells; assay: TMT labeling mass spectrometry proteomics, tagged target; format: cell-based, human; conditions: 1 μM, 2 h; >6,621 proteins quantified
Method: (§1) Sample processing, TMT labelling and fractionation. CRISPR modified BromoTag-Brd2 HEK293 cells were seeded 5×10^6 cells on a […] 24 h before treatment. Cells were treated with either DMSO, 1 μM AGB1 or 1 μM cis-AGB1. 2 h post-treatment, the cells were washed twice with PBS. Cells were lysed in 150 μL of 100 mM TEAB, 5% (w/v) SDS. The lysate was sonicated for 10 s and then centrifuged at 15,000 g for 5 min with the supernatant collected post-centrifugation. Samples were then quantified using a micro-BCA protein assay kit (Thermo Fisher Scientific); 300 μg of each sample were then reduced, alkylated and then digested using Strap mini protocol (Protifi) protocol as described by the manufacturer (protifi) with some modification. Samples were double digested with trypsin (1:40) first overnight then for another 6 hrs with the same ratio (1:40) in 50 mM TEAB buffer. Peptides were quantified using a quantitative fluorometric peptide assay (Thermo Fisher Scientific). The samples (90 μg each) were labelled with a TMT 10-plex Isobaric Label Reagent set (Thermo Fisher Scientific) as per the manufacturer's instructions. After labelling, samples were checked for labelling efficiency, then mixed, desalted, and dried in a speed-vac at 30° C. Samples were re-dissolved in 200 μl ammonium formate (10 mM, pH 9.5) and peptides were fractionated using High pH RP Chromatography. […]

Brd2, Brd3 and Brd4 = assay: First generation screen at 1 μM, 6 h: BET protein levels (western blot); format: cell-based, human
Method: Western Blotting. All cells were harvested on ice with RIPA lysis, and extraction buffer (ThermoFisher Scientific, 89901) supplemented with protease inhibitor cocktail (Merck, 11697498001) and Benzonase® Nuclease (Sigma, E1014) before being store at −20° C. prior to use. Total protein quantity was determined using the BCA protein assay (#23225, Pierce, Rockford, Illinois). Protein concentration was determined using the BCA assay (ThermoFisher Scientific, 23225). Samples were then prepared and loaded onto NuPAGE™ 4-12% Bis-Tris Midi gels (ThermoFisher Scientific, WG1403A), followed by the transfer of the proteins onto nitrocellulose membranes (EMD Millipore). […] All western blots were analysed for band intensities using Image Lab from Bio-Rad (LI-COR, Biosciences). The data extracted from these blots were then plotted and analysed using Prism (v. 8.2.0, GraphPad).
With this initial library in hand, we set out to evaluate the activity and selectivity of our I-BET-based B&H-PROTACs by treating our heterozygous BromoTag-Brd2 HEK293 cells with 1 μM of compounds 15-17 or 1 μM of control compounds MZP-15 (14), MZ1 (1) and cis-MZ1 for 6 h, which is sufficient time to achieve effective MZ1-induced BET protein degradation (FIG. 4A). Cells were harvested, and the subsequent lysate was analysed via western blot using antibodies against BET proteins; Brd2, Brd3 and Brd4 (FIG. 4A).

[2] = mice, values obtained from ref., cited from earlier work
MV-4-11 cells = assay: CellTiter-Glo cell viability assay, MV-4-11; format: cell-based, human; conditions: 24 h
Method: Cell Viability Assay. MV-4-11 cells were plated at a density of 2×10^4 cell per well of a 96 well white-bottom plate, and left to grow overnight in 50 μl of IMDM (Invitrogen, arlsebad, CA, USA) supplemented with 10% (v/v) Fetal bovine serum (FBS) (Thermo Fisher, Waltham, MA, USA) and 1% (v/v) penicillin/streptomycin (pen/strep) (#15140122, Thermo Fisher, Waltham, MA, USA) at 37° C., 5% CO2, and 95% humidity. […] These cells were then left to incubate at 37° C., 5% CO2, and 95% humidity for one day prior to undergoing spectrophotometric analysis. 22RV1 cells were plated at a density of 2×10^4 cell per well of a 96 well white-bottom plate, and left to grow overnight in 100 μL of RPMI-1640 (Invitrogen, Carlsebad, CA, USA) supplemented with 10% (v/v) fetal bovine serum (FBS) (Thermo Fisher, Waltham, MA, USA) and 1% (v/v) penicillin/streptomycin (pen/strep) (#15140122, Thermo Fisher, Waltham, MA, USA) at 37° C., 5% CO2, and 95% humidity. […] Plates were subjected to 2 mins on an orbital shaker to encourage lysis and left for a further 5 mins to reach peak luminescence. Luminescence was then recorded on a BMG Labtech PHERAstar luminescence plate reader with recommended settings. Data extracted from this analysis was analysed with Graphpad Prism (v. 8.2.0, GraphPad) and normalized to the DMSO vehicle control. […]

[3] = system: BRD3, BRD4 or any other endogenous protein; assay: TMT labeling mass spectrometry proteomics, off-targets; format: cell-based, human; conditions: 1 μM, 2 h; >6,621 proteins quantified
Method: as §1

Molecule: CC[C@@H](C(=O)OC)[C@@H]1N=C(c2ccc(Cl)cc2)c2c(sc(C)c2C)-n2c(C)nnc21 [ET-JQ1-OMe]
- binding to the wild-type domain (wild-type Brd4^BD2): undetectable binding

Molecule: CC[C@@H](C(=O)OCCOCCOCCOCC(=O)N[C@H](C(=O)N1C[C@@H](O)C[C@H]1C(=O)NCc1ccc(-c2scnc2C)cc1)C(C)(C)C)[C@@H]1N=C(c2ccc(Cl)cc2)c2c(sc(C)c2C)-n2c(C)nnc21 [cis-AGB1, (S)-13-((2S,4S)-4-hydroxy-2-((4-(4-methylthiazol-5-yl)benzyl)carbamoyl)pyrrolidine-1-carbonyl)-14,14-dimethyl-11-oxo-3,6,9-trioxa-12-azapentadecyl (R)-2-((S)-4-(4-chlorophenyl)-2,3,9-trimethyl-6H-thieno[3,2-f][1,2,4]triazolo[4,3-a][1,4]diazepin-6-yl)butanoate]
- BRD2 protein abundance (proteomics) [1]: No significant changes

Molecule: COc1ccc2c(c1)C(c1ccc(Cl)cc1)=NC(CC(=O)NCCOCCOCCOCC(=O)N[C@H](C(=O)N1C[C@H](O)C[C@H]1C(=O)NCc1ccc(-c3scnc3C)cc1)C(C)(C)C)c1nnc(C)n1-2 (stereo partly drawn) [MZP-15 (14), (2S,4R)-1-((2S)-2-(tert-butyl)-17-(6-(4-chlorophenyl)-8-methoxy-1-methyl-4H-benzo[fj][1,2,4]triazolo[4,3-a][1,4]diazepin-4-yl)-4,16-dioxo-6,9,12-trioxa-3,15-diazaheptadecanoyl)-4-hydroxy-N-(4-(4-methylthiazol-5-yl)benzyl)pyrrolidine-2-carboxamide]
- activity across all three BET family members relative to 1 (Brd2, Brd3 and Brd4): significant lower activity

Molecule: Cc1ncsc1-c1ccc(CNC(=O)[C@@H]2C[C@@H](O)CN2C(=O)[C@@H](NC(=O)COCCOCCOCCNC(=O)C[C@@H]2N=C(c3ccc(Cl)cc3)c3c(sc(C)c3C)-n3c(C)nnc32)C(C)(C)C)cc1 [MZ1 (1)]
- T1/2 ([2]; IV (5 mg/kg), 5 mg/kg): 1.04 h
- AUCinf ([2]; IV (5 mg/kg)): 4.51 µM·h
- CL ([2]; IV (5 mg/kg)): 19.7 mL/min/kg
- MRTinf ([2]; IV (5 mg/kg)): 0.340 h
- Vss ([2]; IV (5 mg/kg)): 0.38 L/kg
- T1/2 ([2]; IV (5 mg/kg), listed as 1, 5 mg/kg): 1.05 h
- AUCinf ([2]; SC (5 mg/kg)): 3.76 µM·h
- F (%) ([2]; SC (5 mg/kg)): 83%
- T1/2 ([2]; SC (5 mg/kg)): 2.95 h
- EC50 (MV-4-11 cells): ~20 nM

Molecule: (S)-13-((2S,4R)-4-hydroxy-2-((4-(4-methylthiazol-5-yl)benzyl)carbamoyl)pyrrolidine-1-carbonyl)-14,14-dimethyl-11-oxo-3,6,9-trioxa-12-azapentadecyl (R)-2-((S)-4-(4-chlorophenyl)-2,3,9-trimethyl-6H-thieno[3,2-f][1,2,4]triazolo[4,3-a][1,4]diazepin-6-yl)butanoate [AGB1 (46)]
- BRD2 protein abundance (proteomics) [1]: most significantly degraded
- depletion of BRD3, BRD4 or any other endogenous protein (proteomics) [3]: no detectable depletion
